In patent publication US4638088A, “Pesticidal biphenylyloxy and biphenylylalkoxy aryl acyl urea compounds” (Union Carbide Corporation, priority 1984, dated 1987):

Assays:
[1] = test system: southern armyworm; experiment: Southern Armyworm Leaf Spray Bait Test; type: in vivo; details: Spodoptera eridania, 120 h; for mortality at 8 ppm: read-out: Percent Control (after 5 days), Application Rate 8 ppm; for mortality at 125 ppm: read-out: Percent Control (after 5 days), Application Rate 125 ppm; for mortality at 25 ppm: read-out: Percent Control (after 5 days), Application Rate 25 ppm; for mortality at 100 ppm: read-out: Percent Control (after 5 days), Application Rate 100 ppm; for mortality at 2 ppm: read-out: Percent Control (after 5 days), Application Rate 2 ppm; for mortality at 4 ppm: read-out: Percent Control (after 5 days), Application Rate 4 ppm; for mortality at 500 ppm: read-out: Activity at 500 ppm, SAW, 500 ppm, Southern Armyworm larvae, up to five days
Procedure: (§1) Suspension of the test compounds were prepared by dissolving one gram of compound in 50 milliliters of acetone in which had been dissolved 0.1 gram (10 percent of the weight of compound) of an alkylphenoxy polyethoxyethanol surfactant, as an emulsifying or dispersing agent. The resulting solution was mixed into 150 milliliters of water to give roughly 200 milliliters of a suspension containing the compound in finely divided form. The thus-prepared stock suspension contained 0.5 percent by weight of compound. The test concentrations in parts per million by weight employed in the tests described hereinbelow were obtained by appropriate dilutions of the stock suspension with water. Certain of the test compounds were also prepared by dissolving 375 mg of compound in 7.5 ml of dimethylformamide. Fifteen milliliters of acetone containing 37.5 mg (10 percent of the weight of test compound) of an alkylphenoxy polyethoxyethanol surfactant, as a wetting/emulsifying/dispersing agent was added to the dimethylformamide solution. Fifty-two and one-half milliliters of water wasa mixed into the dimethylformamide-acetone mixture to give roughly 75 ml of a suspension containing the compound in solution or in finely divided form. The thus prepared stock suspension contained 0.5 percent by weight of compound. The test procedures were as follows:
Larvae of the southern armyworm (Spodoptera eridania, (Cram.), reared on Tendergreen bean plants at a temperature of 80°±5° F. and a relative humidity of 50±5 percent, constituted the test insects.
Potted Tendergreen bean plants of standarad height and age were placed on a revolving turntable and sprayed with 100-110 milliliters of test compound formulation by use of a DeVilbiss spray gun set at 40 psig air pressure. This application, which lasted 25 seconds, was sufficient to wet plants to run-off. As a control, 100-110 milliliters of a water-acetone-emulsifier solution containing no test compound was also sprayed on infested plants. When dry, the paired leaves were separated and each one was placed in a 9 centimeter Petri dish lined with moistened filter paper. Five randomly selected larvae were introduced into each dish and the dishes were closed. The closed dishes were labeled and held at 80°-85° F. for up to five days. Although the larvae could easily consume the whole leaf within twenty-four hours, no more food was added. Larvae which were unable to move the length of the body, even upon stimulation by prodding, were considered dead. Percent mortality was recorded for various concentration levels.

[2] = test system: Mexican bean beetle; experiment: Mexican Bean Beetle Leaf Spray Test; type: in vivo, Epilachna varivestic; details: Mexican Bean Beetle larvae, five days; for mortality at 500 ppm: Epilachna varivestis, 120 h, read-out: Activity at 500 ppm, MBB; for Activity at 500 ppm, MBB: 7200 min
Procedure: as §1
Fourth instar larvae of the Mexican bean beetle (Epilachna varivestic, Muls.), reared on Tendergreen bean plants at a temperature of 80°±5° F. and 50±5 percent relative humidity, were the test insects. For certain of the tests second instar larvae (weighting about 6 mg) of the Mexican bean beetle (Epilachna varaivestis, Muls.), reared on Sieva Pole lime bean plants at a temperature of 80°±5° F. and 50±5 percent relative humidity, were the test insects.
The test compounds were formulated by diluting the stock suspension with water to give a suspension containing 500 parts of test compound per million parts of final formulation. Potted Tendergreen bean plants of standard height and age were placed on a revolving turntable and sprayed with 100-110 milliliters of test compound formulation by use of a DeVilbiss spray gun set at 40 psig air pressure. This application, which lasted 25 seconds, was sufficient to wet plants to run-off. As a control, 100-110 milliliters of a water-acetone-emulsifier solution containing no test compound was also sprayed on infested plants. When dry, the paired leaves were separated and each was placed in a 9 centimeter Petri dish lined with moistened filter paper. Five randomly selected larvae were introduced into each dish, and the dishes were closed. The closed dishes were labeled and held at a temperature of 80°±5° F., for five days. Although the larvae could easily consume the leaf within 24 to 48 hours, no more food was added. Larvae which were unable to move the length of the body, even upon stimulation, were considered dead. Percent mortality was recorded for various concentration levels.

Cc1ccc(Oc2ccc(NC(=O)NC(=O)c3ccccc3Cl)cc2Cl)c(C)c1 [Comparative Example B, reference compound]
mortality at 8 ppm [1]: 20% | mortality at 21 ppm ([1]; read-out: Percent Control (after 5 days), Application Rate 21 ppm): 30% | mortality at 125 ppm [1]: 100%

O=C(NC(=O)c1c(F)cccc1F)Nc1cc(Cl)c(Oc2cccc3ccccc23)c(Cl)c1 [Comparative Example C, reference compound]
mortality at 8 ppm [1]: 0% | mortality at 31 ppm ([1]; read-out: Percent Control (after 5 days), Application Rate 31 ppm): 40% | mortality at 125 ppm [1]: 100%

O=C(NC(=O)c1ccc(F)cc1Cl)Nc1cc(Cl)c(Oc2ccc(-c3ccccc3)cc2)c(Cl)c1 [Comparative Example F, reference compound]
mortality at 6.5 ppm ([1]; read-out: Percent Control (after 5 days), Application Rate 6.5 ppm): 0% | mortality at 25 ppm [1]: 0% | mortality at 100 ppm [1]: 0%

O=C(NC(=O)c1cc(F)ccc1Cl)Nc1cc(Cl)c(Oc2cccc(-c3ccccc3)c2)c(Cl)c1 [Comparative Example G, reference compound]
mortality at 6.25 ppm ([1]; read-out: Percent Control (after 5 days), Application Rate 6.25 ppm): 0% | mortality at 25 ppm [1]: 0% | mortality at 100 ppm [1]: 0%

Cc1cc(NC(=O)NC(=O)c2ccccc2Cl)c(C)c(Cl)c1Oc1ccc(S(=O)(=O)c2ccc(Cl)cc2)cc1 [Comparative Example H, reference compound]
mortality at 2 ppm [1]: 0% | mortality at 4 ppm [1]: 0% | mortality at 8 ppm [1]: 10%

O=C(NC(=O)c1c(F)cccc1F)Nc1ccc(Oc2ccc(Oc3ccccc3)cc2)cc1 [D, reference compound]
mortality at 25 ppm [1]: 0% | mortality at 100 ppm [1]: 0%

O=C(NC(=O)c1ccccc1Cl)Nc1ccc(Oc2ccc(Oc3ccccc3)cc2)cc1 [E, reference compound]
mortality at 25 ppm [1]: 0% | mortality at 100 ppm [1]: 0%

Cc1cc(NC(=O)NC(=O)c2ccccc2Cl)c(C)c(Cl)c1Oc1ccc(-c2ccccc2)cc1Cl [Example 1, 1-(2-chlorobenzoyl)-3-[2,5-dimethyl-3-chloro-4-(2-chloro-4-phenylphenoxy)phenyl]urea]
mortality at 500 ppm [1]: 71 to 100% | mortality at 500 ppm [2]: 71 to 100%

O=C(NC(=O)c1ccccc1Cl)Nc1cc(Cl)c(OCc2ccccc2-c2ccccc2)c(Cl)c1 [Example 2, 1-(2-chlorobenzoyl)-3-[3,5-dichloro-4-(2-phenylphenylmethoxy)phenyl]urea]
mortality at 500 ppm [1]: 71 to 100% | mortality at 500 ppm [2]: 71 to 100%

Cc1cc(NC(=O)NC(=O)c2ccccc2Cl)c(C)c(Cl)c1Oc1ccccc1-c1ccccc1 [Example 3]
mortality at 500 ppm [1]: 71 to 100% | mortality at 500 ppm [2]: 71 to 100%

Cc1cc(NC(=O)NC(=O)c2c(Cl)cccc2Cl)c(C)c(Cl)c1Oc1ccccc1-c1ccccc1 [Example 4]
mortality at 500 ppm [1]: 71 to 100% | mortality at 500 ppm [2]: 71 to 100%

Cc1cc(NC(=O)NC(=O)c2c(F)cccc2Cl)c(C)c(Cl)c1Oc1ccccc1-c1ccccc1 [Example 5]
mortality at 500 ppm [1]: 71 to 100% | mortality at 500 ppm [2]: 71 to 100%

Cc1cc(NC(=O)NC(=O)c2c(F)cccc2F)c(C)c(Cl)c1Oc1ccccc1-c1ccccc1 [Example 6]
mortality at 500 ppm [1]: 71 to 100% | mortality at 500 ppm [2]: 71 to 100%

Cc1cc(NC(=S)NC(=O)c2ccccc2Cl)c(C)c(Cl)c1Oc1ccccc1-c1ccccc1 [Example 7]
mortality at 500 ppm [1]: 71 to 100% | mortality at 500 ppm [2]: 71 to 100%

Cc1cc(NC(=S)NC(=O)c2ccccc2F)c(C)c(Cl)c1Oc1ccccc1-c1ccccc1 [Example 8]
Activity at 500 ppm, MBB [2]: A (71- 100% Kill)

Cc1ccccc1C(=O)NC(=S)Nc1cc(C)c(Oc2ccccc2-c2ccccc2)c(Cl)c1C [Example 9]
mortality at 500 ppm [1]: 71 to 100% | mortality at 500 ppm [2]: 71 to 100%

Cc1cc(NC(=S)NC(=O)c2ccccc2F)c(C)c(Cl)c1Oc1ccccc1-c1ccccc1 [Example 30]
Activity at 500 ppm, MBB [2]: C (0- 30% Kill)

Cc1cc(NC(=O)NC(=O)c2c(F)cccc2F)c(C)c(Cl)c1Oc1ccccc1-c1ccccc1 [Example 33]
mortality at 2 ppm [1]: 100% | mortality at 8 ppm [1]: 100%

Cc1cc(NC(=S)NC(=O)c2ccccc2F)c(C)c(Cl)c1Oc1ccccc1-c1ccccc1 [Example 34]
mortality at 2 ppm [1]: 100% | mortality at 8 ppm [1]: 100%

O=C(NC(=O)c1c(F)cccc1F)Nc1cc(Cl)c(OCc2ccccc2-c2ccccc2)c(Cl)c1 [Example 35]
mortality at 1 ppm ([1]; read-out: Percent Control (after 5 days), Application Rate 1 ppm): 100% | mortality at 4 ppm [1]: 100%
